Measurements taken from BigSolDB 2.1.

NC(=O)c1cnccn1
solubility (mole fraction)
Conditions | 278.15 K | 283.15 K | 288.15 K | 293.15 K | 298.15 K | 303.15 K | 308.15 K | 313.15 K | 318.15 K | 323.15 K
in acetone | 0.00249 | 0.00304 | 0.00357 | 0.00424 | 0.00495 | 0.00574 | 0.00674 | 0.00784 | 0.00897 | 0.00975
in acetonitrile | 0.00125 | 0.00162 | 0.00205 | 0.00248 | 0.00294 | 0.00351 | 0.0042 | 0.00497 | 0.0058 | 0.00633
in ethyl acetate | 0.0016 | 0.00219 | 0.0024 | 0.00312 | 0.0035 | 0.00416 | 0.00475 | 0.00581 | 0.00666 | 0.00775
in isopropanol | 0.000619 | 0.000973 | 0.00136 | 0.00181 | 0.00224 | 0.00279 | 0.00365 | 0.00466 | 0.00574 | 0.00692
in methanol | 0.00208 | 0.00265 | 0.00328 | 0.00384 | 0.0047 | 0.00563 | 0.0071 | 0.00828 | 0.01 | –
in n-butanol | 0.000772 | 0.00116 | 0.00148 | 0.00192 | 0.00237 | 0.00309 | 0.00396 | 0.00512 | 0.00623 | 0.00731
in n-propanol | 0.000775 | 0.00123 | 0.00145 | 0.00179 | 0.00245 | 0.00297 | 0.00394 | 0.00503 | 0.00616 | 0.00707
in sec-butanol | 0.00053 | 0.00081 | 0.00108 | 0.0015 | 0.00188 | 0.00252 | 0.00332 | 0.00434 | 0.00564 | 0.00696
in water | 0.00105 | 0.00131 | 0.00168 | 0.00194 | 0.0024 | 0.00284 | 0.00362 | 0.00421 | 0.00521 | 0.006
